# Legend:
# A1 receptor = target: T1, A1 receptor (Mesocricetus auratus, UniProt A0A1U8BVR4); assay: Competitive binding assay, DDT1 cell membranes, [3H]CCPA; design: species or system hamster; conditions: [3H]CCPA 2 nM, DDT1 cell membranes; read-out: Ki-DDT1 cell membrane
# T1 construct: endogenous in cells; host or cells: DDT1 (DDT1 MF-2) hamster vas deferens smooth muscle cells
# T1 sequence (A0A1U8BVR4 1-326): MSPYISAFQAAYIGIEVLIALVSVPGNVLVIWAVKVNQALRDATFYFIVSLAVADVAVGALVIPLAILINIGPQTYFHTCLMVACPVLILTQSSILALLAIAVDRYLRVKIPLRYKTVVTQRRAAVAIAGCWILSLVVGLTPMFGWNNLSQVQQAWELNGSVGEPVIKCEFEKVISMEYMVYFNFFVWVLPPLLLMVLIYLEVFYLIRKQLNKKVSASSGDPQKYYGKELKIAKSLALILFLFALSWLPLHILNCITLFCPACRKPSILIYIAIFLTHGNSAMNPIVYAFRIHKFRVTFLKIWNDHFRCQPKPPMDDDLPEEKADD
# A1 adenosine receptor = target: T2, A1 adenosine receptor (Cavia porcellus, UniProt P47745); assay: Guinea pig isolated perfused heart: S-H interval, heart rate, atrial MAP
# T2 construct: The hearts were quickly removed and rinsed in ice-cold Krebs-Henseleit solution; from tissue; host or cells: guinea pig isolated perfused heart
# T2 sequence (P47745 1-326): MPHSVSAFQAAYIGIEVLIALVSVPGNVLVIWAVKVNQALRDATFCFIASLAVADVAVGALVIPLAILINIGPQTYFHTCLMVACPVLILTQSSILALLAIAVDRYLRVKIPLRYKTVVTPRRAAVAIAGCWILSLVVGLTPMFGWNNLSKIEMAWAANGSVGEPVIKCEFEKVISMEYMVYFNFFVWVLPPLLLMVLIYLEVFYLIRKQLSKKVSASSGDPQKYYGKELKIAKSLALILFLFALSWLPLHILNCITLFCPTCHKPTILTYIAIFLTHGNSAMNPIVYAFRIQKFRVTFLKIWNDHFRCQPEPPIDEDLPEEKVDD
# Description: Guinea pigs of either sex weighing 250-300 g were anesthetized with methoxyflurane and killed by cervical dislocation. The hearts were quickly removed and rinsed in ice-cold Krebs-Henseleit solution. The aorta was cannulated and the heart retrogradely perfused at a constant flow of 10 ml min^−1 with modified Krebs-Henseleit solution containing (mM): NaCL 117.9, KCl 4.8, CaCl2 2.5, MgSO4 1.18, KH2PO4 1.2, Na2EDTA 0.5, ascorbic acid 0.14, glucose 5.5, pyruvic acid (sodium salt) 2.0, and NaHCO3 25. The K—H solution was oxygenated with 95% oxygen and 5% CO2, pH 7.4, and temperature maintained at 36° C.
# Hearts were electrically paced at a cycle length of 290-300 ms (unless otherwise indicated) using a bipolar electrode placed on the right atrium or ventricle. The stimulator, an interval generator (Model 1830, WPI, Sarasota, Fla., U.S.A.) delivered stimuli through a stimulus isolation unit (Model 1880, WPI) as square wave pulses of 3 ms in duration and at least twice the threshold intensity. The stimulus-to-His bundle (S—H) interval was used as index of AV nodal conduction time and was measured on-line during constant atrial pacing from microcomputer with a DT-208 1A interface board (Axon Instruments, Burlingame, Calif., U.S.A.) In experiments to study the chronotropic effect (effect on heart rate) of A1 AdoR agonists, the hearts were allowed to beat spontaneously. An atrial electrogram was used to record the electrical activity of the atria and to measure the heart rate.
# Monophasic action potentials (MAP) were recorded using a pressure contact silver-silver chloride electrode (Langendorf Probe, EP Technologies, Inc., Sunnyvale, Calif., U.S.A.) placed on the surface of the left atrium. […] Signals were considered adequate if they were stable for at least 5 min and the amplitudes of the MAPs exceeded 10 mV. The data were digitized at 2 kHz by a DT-2801A digitizing board (Data Translation, Marlboro, Mass., U.S.A.) and stored using the Snapshot data acquisition program (Snapshot Storage Scope, HEM Data Corp., Southfield, Mich., U.S.A.) for later analysis. The duration of the atrial monophasic action potential was measured at 90% repolarization (MAPD90), using the Snapshot program. After completion of dissection and instrumentation, the hearts were allowed to equilibrate for 30 min before the experiments were begun. Whenever the baseline and post-intervention (washout) values differed by more than 15% the data were discarded. Approximately 60-70% of the experiments conformed with this criteria.
smiles,measurement,setting,value
"CNC(=O)OC[C@H]1O[C@@H](n2cnc3c(N[C@@H]4CCOC4)ncnc32)[C@H](O)[C@@H]1O [Compound 6, (5-16[((3R)oxolan-3-yl)aminolpurin-9-yl)(3S,2R,4R,5R)-3,4dihydroxyoxolan-2yl)methoxyl-N-methylearboxamide]",Ki,A1 receptor,0.178 µM
same,agonist character at A1 AdoR,A1 adenosine receptor,true partial A1 AdoR agonist
same,antagonism of S-H interval prolongation caused by full agonist CPA,"A1 adenosine receptor; Compound 6 2 and 10 μm, atrial cycle length 300 msec, FIG. 3",antagonizes the negative dromotropic effect
same,effect on atrial monophasic action potential,A1 adenosine receptor; FIG. 1 panel B,no effect
same,effect on AV nodal conduction time (S-H interval),A1 adenosine receptor; FIG. 1 panel C,concentration-dependent and significant increase in AV nodal conduction time
same,second-degree AV block,A1 adenosine receptor; FIG. 1 panel C,without causing second-degree AV block at any concentration tested
same,EC50,"A1 adenosine receptor; guinea pig isolated perfused hearts, read-out: EC50 to prolong S-H interval (negative dromotropic effect)",2.8 ± 1.3 µM
same,selectivity: S-H interval prolongation versus increase of coronary conductance,A1 adenosine receptor; ratio of potencies,at least 10 fold
same,effect on heart rate (chronotropic),"A1 adenosine receptor; spontaneously beating hearts, FIG. 1 panel A",did not slow heart rate

# From patent US20020037872A1, “N6 heterocyclic 5' modified adenosine derivatives” (CV Therapeutics, Inc., priority 1999, published 2002)
